Each block holds one compound with its values, some of them ahead of it.
Legend:
[1] = biological target: ALK tyrosine kinase receptor (Homo sapiens, UniProt Q9UM73); test: Selectivity interaction (KinomeScan (DiscoverX)) EUB0000655a ALK; conditions: at 10 µM
[2] = biological target: Serine/threonine-protein kinase PRP4 homolog (Homo sapiens) (UniProt Q13523); test: Selectivity interaction (KinomeScan (DiscoverX)) EUB0001079a PRPF4B; conditions: at 1 µM
[3] = system: Leucine-rich repeat serine/threonine-protein kinase 2 (Homo sapiens), Q5S007 [G2019S]; conditions: at 1 µM
[4] = biological target: Insulin receptor-related protein (Homo sapiens) (UniProt P14616); test: Selectivity interaction (KinomeScan (DiscoverX)) EUB0000045b INSRR
[5] = biological target: Casein kinase I isoform gamma-1 (Homo sapiens) (UniProt Q9HCP0); test: Selectivity interaction (KinomeScan (DiscoverX)) EUB0000595a CSNK1G1; conditions: at 10 µM
[6] = biological target: MAP kinase-activated protein kinase 2 (Homo sapiens, UniProt P49137); conditions: at 10 µM
[7] = biological target: T1, Protein arginine N-methyltransferase 9 (Homo sapiens) (UniProt Q6P2P2); conditions: at 1 µM
T1 sequence (whole entry): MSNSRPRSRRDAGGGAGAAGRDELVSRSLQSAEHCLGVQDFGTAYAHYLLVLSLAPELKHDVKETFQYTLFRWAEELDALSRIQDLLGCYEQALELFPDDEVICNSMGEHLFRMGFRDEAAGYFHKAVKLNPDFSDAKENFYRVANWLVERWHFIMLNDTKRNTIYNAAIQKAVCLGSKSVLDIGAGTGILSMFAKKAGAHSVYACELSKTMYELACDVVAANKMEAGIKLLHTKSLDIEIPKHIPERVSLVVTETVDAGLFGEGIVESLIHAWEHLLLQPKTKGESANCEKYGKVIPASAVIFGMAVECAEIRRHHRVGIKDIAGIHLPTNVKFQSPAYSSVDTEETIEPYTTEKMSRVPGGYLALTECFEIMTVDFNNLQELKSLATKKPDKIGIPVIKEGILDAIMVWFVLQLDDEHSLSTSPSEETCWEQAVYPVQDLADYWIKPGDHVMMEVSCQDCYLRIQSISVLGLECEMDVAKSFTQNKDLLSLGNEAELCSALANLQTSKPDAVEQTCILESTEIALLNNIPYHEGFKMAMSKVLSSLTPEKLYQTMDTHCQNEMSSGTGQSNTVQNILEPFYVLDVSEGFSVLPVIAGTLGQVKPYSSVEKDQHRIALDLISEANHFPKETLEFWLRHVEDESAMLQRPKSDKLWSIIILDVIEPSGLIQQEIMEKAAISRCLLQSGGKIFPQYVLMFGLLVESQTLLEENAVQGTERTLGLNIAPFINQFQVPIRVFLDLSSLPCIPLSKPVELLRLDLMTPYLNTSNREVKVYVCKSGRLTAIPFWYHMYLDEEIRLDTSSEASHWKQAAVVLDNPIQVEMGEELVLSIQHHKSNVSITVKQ

[8] = biological target: T2, Serine/threonine-protein kinase greatwall (Homo sapiens) (UniProt Q96GX5); test: Selectivity interaction (Kinase panel (KiNativ target engagement assay in Jurkat cells)) EUB0001635a MASTL; assay type: cell-based; conditions: at 1 µM
T2 sequence (whole entry): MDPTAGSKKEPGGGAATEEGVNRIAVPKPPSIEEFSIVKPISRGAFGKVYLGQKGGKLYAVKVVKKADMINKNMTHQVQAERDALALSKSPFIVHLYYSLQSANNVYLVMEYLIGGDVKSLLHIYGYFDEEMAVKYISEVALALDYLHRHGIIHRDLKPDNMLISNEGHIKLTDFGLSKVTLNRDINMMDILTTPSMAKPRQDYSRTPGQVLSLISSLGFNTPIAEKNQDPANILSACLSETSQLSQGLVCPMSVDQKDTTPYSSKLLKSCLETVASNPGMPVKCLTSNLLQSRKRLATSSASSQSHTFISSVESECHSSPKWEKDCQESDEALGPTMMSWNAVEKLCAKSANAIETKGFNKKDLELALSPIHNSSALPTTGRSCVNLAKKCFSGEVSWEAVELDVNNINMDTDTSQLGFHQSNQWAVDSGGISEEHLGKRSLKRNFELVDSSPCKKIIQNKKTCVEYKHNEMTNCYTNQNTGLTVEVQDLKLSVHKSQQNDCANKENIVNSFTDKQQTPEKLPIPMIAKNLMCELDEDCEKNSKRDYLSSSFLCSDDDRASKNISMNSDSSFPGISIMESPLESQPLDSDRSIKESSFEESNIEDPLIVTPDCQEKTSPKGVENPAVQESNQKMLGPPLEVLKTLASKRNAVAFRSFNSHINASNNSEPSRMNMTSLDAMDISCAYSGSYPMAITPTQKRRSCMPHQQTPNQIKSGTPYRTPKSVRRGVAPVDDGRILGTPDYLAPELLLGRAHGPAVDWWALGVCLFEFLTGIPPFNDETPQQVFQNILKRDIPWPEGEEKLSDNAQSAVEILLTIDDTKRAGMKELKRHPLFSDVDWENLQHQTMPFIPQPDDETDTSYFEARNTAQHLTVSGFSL

[9] = Selectivity interaction (Calcium Channel (L) receptor assay: rat brain ) EUB0000877a CACNA1C
[10] = biological target: Tyrosine-protein kinase ABL1 (Homo sapiens, UniProt P00519); test: Selectivity interaction (KinomeScan (DiscoverX)) EUB0000666a ABL1; conditions: at 10 µM
[11] = biological target: Tyrosine-protein kinase SYK (Homo sapiens, UniProt P43405); test: Selectivity interaction (KinomeScan (DiscoverX)) EUB0000092b SYK; conditions: at 10 µM
[12] = biological target: T3, Mitogen-activated protein kinase kinase kinase 7 (Homo sapiens) (UniProt O43318); test: Selectivity interaction (KinomeScan (DiscoverX)) EUB0000092b MAP3K7; conditions: at 10 µM
T3 sequence (whole entry): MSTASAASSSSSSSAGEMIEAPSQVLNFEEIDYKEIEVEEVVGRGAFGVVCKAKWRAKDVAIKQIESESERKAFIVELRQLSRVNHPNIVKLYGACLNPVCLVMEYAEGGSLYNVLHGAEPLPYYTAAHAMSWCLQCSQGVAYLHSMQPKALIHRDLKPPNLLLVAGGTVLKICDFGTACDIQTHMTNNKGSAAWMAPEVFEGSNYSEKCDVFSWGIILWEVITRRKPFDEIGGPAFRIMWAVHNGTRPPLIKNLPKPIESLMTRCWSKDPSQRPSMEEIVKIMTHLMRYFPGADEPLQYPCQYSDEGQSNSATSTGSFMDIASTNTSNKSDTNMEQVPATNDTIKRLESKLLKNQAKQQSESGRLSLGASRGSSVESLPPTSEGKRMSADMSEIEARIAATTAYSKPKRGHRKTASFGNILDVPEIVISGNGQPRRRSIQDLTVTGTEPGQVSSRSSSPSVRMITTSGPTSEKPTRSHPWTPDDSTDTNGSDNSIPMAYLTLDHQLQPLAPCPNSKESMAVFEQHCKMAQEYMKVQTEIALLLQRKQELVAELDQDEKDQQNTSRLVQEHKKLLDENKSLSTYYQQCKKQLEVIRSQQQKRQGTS

Insulin receptor-related protein (Homo sapiens), sequence (P14616 27-742 limits assumed): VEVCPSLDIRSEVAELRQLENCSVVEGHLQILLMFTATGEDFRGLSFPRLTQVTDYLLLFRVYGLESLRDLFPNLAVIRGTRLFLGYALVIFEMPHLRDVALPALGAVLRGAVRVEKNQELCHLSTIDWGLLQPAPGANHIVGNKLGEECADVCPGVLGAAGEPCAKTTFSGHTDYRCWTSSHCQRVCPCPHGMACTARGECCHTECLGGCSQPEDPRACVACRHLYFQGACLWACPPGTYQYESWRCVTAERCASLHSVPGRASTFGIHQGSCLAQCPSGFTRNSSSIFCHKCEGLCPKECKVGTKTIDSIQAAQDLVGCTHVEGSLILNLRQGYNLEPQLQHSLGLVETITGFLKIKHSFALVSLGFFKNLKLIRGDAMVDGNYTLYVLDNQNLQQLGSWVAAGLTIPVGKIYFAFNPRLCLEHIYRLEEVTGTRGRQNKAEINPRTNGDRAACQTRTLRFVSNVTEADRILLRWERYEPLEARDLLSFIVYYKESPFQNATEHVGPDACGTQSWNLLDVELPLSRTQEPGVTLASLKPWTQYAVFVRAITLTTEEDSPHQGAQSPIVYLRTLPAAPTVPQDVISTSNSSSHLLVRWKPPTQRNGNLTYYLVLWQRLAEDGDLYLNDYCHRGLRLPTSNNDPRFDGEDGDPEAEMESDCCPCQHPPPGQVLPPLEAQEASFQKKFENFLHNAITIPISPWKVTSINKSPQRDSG
Insulin receptor-related protein (Homo sapiens), sequence (P14616 747-1297 limits assumed): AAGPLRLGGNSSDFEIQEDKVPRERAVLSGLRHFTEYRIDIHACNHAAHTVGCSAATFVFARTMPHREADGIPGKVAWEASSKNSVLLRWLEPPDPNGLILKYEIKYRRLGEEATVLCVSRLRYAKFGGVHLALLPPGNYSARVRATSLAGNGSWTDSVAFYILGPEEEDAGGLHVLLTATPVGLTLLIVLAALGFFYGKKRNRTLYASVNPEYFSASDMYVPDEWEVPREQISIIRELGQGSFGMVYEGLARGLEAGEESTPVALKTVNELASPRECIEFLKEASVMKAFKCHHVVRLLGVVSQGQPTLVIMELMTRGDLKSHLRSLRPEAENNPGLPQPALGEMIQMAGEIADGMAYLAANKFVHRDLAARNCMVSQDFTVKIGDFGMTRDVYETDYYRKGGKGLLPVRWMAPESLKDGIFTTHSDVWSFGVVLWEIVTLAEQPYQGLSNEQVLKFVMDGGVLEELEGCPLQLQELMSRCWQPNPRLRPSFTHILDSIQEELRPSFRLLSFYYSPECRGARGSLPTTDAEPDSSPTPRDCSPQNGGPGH
Serine/threonine-protein kinase PRP4 homolog (Homo sapiens), sequence (Q13523 whole entry): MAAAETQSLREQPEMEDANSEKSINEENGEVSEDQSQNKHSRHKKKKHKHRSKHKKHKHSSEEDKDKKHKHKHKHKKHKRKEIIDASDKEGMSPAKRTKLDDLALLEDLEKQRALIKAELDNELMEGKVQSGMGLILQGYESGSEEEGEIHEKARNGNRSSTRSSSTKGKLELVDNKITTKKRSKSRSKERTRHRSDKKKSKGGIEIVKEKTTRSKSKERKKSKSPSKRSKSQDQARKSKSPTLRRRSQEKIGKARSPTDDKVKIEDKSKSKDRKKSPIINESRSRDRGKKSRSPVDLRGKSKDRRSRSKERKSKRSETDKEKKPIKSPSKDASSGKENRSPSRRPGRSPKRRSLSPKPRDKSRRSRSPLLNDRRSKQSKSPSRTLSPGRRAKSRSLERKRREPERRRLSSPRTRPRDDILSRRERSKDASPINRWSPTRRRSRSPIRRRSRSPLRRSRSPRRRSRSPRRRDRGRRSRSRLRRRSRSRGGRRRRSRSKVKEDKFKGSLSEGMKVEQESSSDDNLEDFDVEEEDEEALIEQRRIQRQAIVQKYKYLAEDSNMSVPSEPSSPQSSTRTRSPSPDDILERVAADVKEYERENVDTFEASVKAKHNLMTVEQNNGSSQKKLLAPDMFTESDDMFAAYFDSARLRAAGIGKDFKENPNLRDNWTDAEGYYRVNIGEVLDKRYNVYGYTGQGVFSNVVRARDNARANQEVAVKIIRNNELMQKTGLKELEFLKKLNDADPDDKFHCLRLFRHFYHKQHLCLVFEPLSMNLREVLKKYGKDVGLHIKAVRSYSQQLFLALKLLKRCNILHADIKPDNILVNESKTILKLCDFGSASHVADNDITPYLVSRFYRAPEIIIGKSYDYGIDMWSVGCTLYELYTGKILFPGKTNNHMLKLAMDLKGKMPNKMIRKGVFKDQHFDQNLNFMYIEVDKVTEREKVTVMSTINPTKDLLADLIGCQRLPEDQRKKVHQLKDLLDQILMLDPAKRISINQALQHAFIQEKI
MAP kinase-activated protein kinase 2, sequence (P49137 whole entry, looked up): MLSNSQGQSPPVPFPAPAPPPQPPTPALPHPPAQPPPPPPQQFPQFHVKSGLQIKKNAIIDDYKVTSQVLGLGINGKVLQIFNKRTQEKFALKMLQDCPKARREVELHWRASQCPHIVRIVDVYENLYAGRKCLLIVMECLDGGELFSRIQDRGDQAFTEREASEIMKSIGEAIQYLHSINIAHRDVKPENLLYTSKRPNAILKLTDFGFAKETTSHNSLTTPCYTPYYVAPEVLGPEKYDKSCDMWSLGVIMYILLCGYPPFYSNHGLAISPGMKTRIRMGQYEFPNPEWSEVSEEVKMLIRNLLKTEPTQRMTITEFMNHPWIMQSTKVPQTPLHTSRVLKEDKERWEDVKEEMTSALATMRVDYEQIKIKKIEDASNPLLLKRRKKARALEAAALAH
ALK tyrosine kinase receptor, sequence (Q9UM73 19-1620 limits assumed): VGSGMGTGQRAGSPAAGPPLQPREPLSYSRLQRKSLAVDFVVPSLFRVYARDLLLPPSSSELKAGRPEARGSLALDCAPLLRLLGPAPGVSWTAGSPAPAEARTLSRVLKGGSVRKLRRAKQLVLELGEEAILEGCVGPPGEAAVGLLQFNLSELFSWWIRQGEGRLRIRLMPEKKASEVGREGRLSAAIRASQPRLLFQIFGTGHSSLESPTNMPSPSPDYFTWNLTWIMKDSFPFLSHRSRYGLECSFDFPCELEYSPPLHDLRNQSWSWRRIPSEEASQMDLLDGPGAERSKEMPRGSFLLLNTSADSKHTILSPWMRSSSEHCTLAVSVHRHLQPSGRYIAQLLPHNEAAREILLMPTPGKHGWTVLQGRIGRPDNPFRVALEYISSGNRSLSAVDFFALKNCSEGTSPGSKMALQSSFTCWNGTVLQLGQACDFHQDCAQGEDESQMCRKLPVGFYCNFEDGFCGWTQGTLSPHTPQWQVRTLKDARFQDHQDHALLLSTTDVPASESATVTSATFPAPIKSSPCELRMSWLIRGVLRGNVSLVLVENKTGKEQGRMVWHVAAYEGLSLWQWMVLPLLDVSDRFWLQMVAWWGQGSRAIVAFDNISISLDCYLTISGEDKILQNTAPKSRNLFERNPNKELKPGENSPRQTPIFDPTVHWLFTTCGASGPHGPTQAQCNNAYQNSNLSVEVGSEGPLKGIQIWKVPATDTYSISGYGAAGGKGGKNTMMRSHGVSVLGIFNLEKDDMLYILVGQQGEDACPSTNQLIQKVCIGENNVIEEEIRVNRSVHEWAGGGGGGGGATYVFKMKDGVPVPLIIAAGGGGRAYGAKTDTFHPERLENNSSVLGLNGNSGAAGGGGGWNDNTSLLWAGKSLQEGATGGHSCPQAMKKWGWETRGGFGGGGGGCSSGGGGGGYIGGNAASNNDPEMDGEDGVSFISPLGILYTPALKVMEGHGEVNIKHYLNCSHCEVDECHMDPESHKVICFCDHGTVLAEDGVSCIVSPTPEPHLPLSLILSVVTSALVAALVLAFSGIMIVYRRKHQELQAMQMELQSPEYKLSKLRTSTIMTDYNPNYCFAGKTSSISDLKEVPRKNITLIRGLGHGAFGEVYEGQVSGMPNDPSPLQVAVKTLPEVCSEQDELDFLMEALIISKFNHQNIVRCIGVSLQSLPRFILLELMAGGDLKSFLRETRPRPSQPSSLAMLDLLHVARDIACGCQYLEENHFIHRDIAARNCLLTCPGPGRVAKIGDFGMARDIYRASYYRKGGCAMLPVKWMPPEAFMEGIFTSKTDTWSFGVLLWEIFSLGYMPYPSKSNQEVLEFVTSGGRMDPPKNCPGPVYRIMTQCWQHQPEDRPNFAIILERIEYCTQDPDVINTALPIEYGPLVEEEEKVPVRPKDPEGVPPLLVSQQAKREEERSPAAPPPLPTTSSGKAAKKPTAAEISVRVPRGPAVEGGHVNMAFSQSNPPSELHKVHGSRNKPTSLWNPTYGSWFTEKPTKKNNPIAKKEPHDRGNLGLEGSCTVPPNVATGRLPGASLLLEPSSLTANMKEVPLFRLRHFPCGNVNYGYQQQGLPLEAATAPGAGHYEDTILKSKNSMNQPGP
Casein kinase I isoform gamma-1 (Homo sapiens), sequence (Q9HCP0 whole entry, looked up, canonical isoform): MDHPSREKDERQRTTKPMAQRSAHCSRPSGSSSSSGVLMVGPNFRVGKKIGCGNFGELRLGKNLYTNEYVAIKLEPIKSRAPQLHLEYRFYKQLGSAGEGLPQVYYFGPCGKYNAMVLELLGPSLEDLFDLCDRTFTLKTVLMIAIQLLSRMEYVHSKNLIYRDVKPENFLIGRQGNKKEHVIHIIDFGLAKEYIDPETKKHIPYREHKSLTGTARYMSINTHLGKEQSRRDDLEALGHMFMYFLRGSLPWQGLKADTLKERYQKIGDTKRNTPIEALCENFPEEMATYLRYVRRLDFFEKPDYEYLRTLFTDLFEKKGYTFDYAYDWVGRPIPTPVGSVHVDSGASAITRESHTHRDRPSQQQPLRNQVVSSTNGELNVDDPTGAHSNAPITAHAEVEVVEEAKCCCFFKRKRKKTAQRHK

Compound: CN(C)CCOc1ccc(-c2nc(-c3ccncc3)c(-c3ccc4c(c3)CC/C4=N\O)[nH]2)cc1
% of control [1]: 45%

Compound: Nc1cnc(N2CCc3cc(S(=O)(=O)Nc4c(F)cc(Cl)cc4F)cc(N4CCCC4=O)c32)nc1 [TP-020n]
% of control [2]: 76%

Compound: N#Cc1cccc(-c2c[nH]c3ncnc(N4CCOCC4)c23)c1
% of control [3]: 75%

Compound: C=CC(=O)Nc1cc(-n2c(=O)ccc3cnc4ccc(-c5ccc(NS(C)(=O)=O)cc5)cc4c32)ccc1C
% of control ([4]; at 1 µM): 98% | % of control ([4]; at 10 µM): 100%

Compound: COCC(=O)NC/C=C/c1ccc2ncnc(Nc3ccc(Oc4ccc(C)nc4)c(C)c3)c2c1 [CP-724714]
% of control [5]: 100% | % of control [6]: 100%

% activity [7]: > 90%
Compound: CNCCN1CCC(c2cc(CN(C)C(=O)c3cccc(Oc4ccccc4)c3)ccn2)CC1

Compound: C=CC(=O)Nc1ccc(C(=O)Nc2[nH]nc3c2CN(C(=O)N[C@H](CN(C)C)c2ccccc2)C3(C)C)cc1
% of engagement [8]: 6.7%

IC50 [9]: > 30 µM
Compound: CCC(=O)N1CC[C@H](Nc2ncnc3c2CN(c2cnc(OC)c(C(F)(F)F)c2)CC3)C1 [LENIOLISIB]

Compound: O=C(NOC[C@H](O)CO)c1ccc(F)c(F)c1Nc1ccc(I)cc1F
% of control [10]: 97%

Compound: CCC(=O)N1CCN(c2ccc(-n3c(=O)ccc4cnc5ccc(-c6cnc7ccccc7c6)cc5c43)cc2C(F)(F)F)CC1
% of control [11]: 78% | % of control [12]: 47%

Source: ChEMBL document CHEMBL5465560, “Selectivity Literature for EUbOPEN Chemogenomic Library” (2024)
